Key:
[1] = test system: normal NK cells expanded with K562-aAPC; test: percent inhibition of viability; higher = more inhibition; settings: 72 h, IL-2 2.5 ng/mL
Experimental: (§1)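 Drug sensitivity and resistance testing on K562-aAPC-expanded normal NK cells: 5 concentrations (10-fold steps over a 10,000-fold range), 72 h at 37 °C, viability by CellTiter-Glo normalised to DMSO and benzethonium chloride controls; DSS from the fitted curve.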

[2] = test system: DERL-7 (IL-2 2.5 ng/mL); test: drug sensitivity score (DSS) (DSS units); higher = more sensitive; extreme values may be limits of the assay; settings: 72 h
[3] = test system: IMC-1 (IL-2 20 ng/mL); test: as above; settings: 72 h
[4] = test system: KAI3 (IL-2 2.5 ng/mL); test: as above; settings: 72 h
[5] = test system: SNK-6 (IL-2 2.5 ng/mL); test: as above; settings: 72 h
[6] = test system: normal primary NK cells, pool 2 (3 donors) (IL-2 2.5 ng/mL); test: as above; settings: 72 h
[7] = test system: NK-92 (IL-2 2.5 ng/mL); test: as above; settings: 72 h
[8] = test system: YT (IL-2 2.5 ng/mL); test: as above; settings: 72 h
[9] = test system: normal primary NK cells, pool 1 (3 donors) (IL-2 2.5 ng/mL); test: as above; settings: 72 h
[10] = test system: NKL (IL-2 2.5 ng/mL); test: as above; settings: 72 h
[11] = test system: NK-YS (IL-2 2.5 ng/mL); test: as above; settings: 72 h
[12] = test system: normal primary NK cells, pool 3 (3 donors) (IL-2 2.5 ng/mL); test: as above; settings: 72 h
[13] = test system: normal primary NK cells, pool 1 (3 donors), resting (IL-2 0 ng/mL); test: as above; settings: 72 h
[14] = test system: KHYG-1 (IL-2 2.5 ng/mL); test: as above; settings: 72 h
[15] = test system: DERL-7 (IL-2 2.5 ng/mL); test: percent inhibition of viability; higher = more inhibition; settings: 72 h
[16] = test system: IMC-1 (IL-2 20 ng/mL); test: as above; settings: 72 h
[17] = test system: KAI3 (IL-2 2.5 ng/mL); test: as above; settings: 72 h
[18] = test system: SNK-6 (IL-2 2.5 ng/mL); test: as above; settings: 72 h
[19] = test system: normal primary NK cells, pool 2 (3 donors) (IL-2 2.5 ng/mL); test: as above; settings: 72 h
[20] = test system: NK-92 (IL-2 2.5 ng/mL); test: as above; settings: 72 h
[21] = test system: YT (IL-2 2.5 ng/mL); test: as above; settings: 72 h
[22] = test system: normal primary NK cells, pool 1 (3 donors) (IL-2 2.5 ng/mL); test: as above; settings: 72 h
[23] = test system: NKL (IL-2 2.5 ng/mL); test: as above; settings: 72 h
[24] = test system: NK-YS (IL-2 2.5 ng/mL); test: as above; settings: 72 h
[25] = test system: normal primary NK cells, pool 3 (3 donors) (IL-2 2.5 ng/mL); test: as above; settings: 72 h
[26] = test system: normal primary NK cells, pool 1 (3 donors), resting (IL-2 0 ng/mL); test: as above; settings: 72 h
[27] = test system: KHYG-1 (IL-2 2.5 ng/mL); test: as above; settings: 72 h
[28] = test system: normal NK cells expanded with K562-aAPC; test: drug sensitivity score (DSS) (DSS units); higher = more sensitive; extreme values may be limits of the assay; settings: 72 h; IL-2 2.5 ng/mL
Experimental: as §1

CCCCCCCCc1ccc(CCC(N)(CO)CO)cc1 [Fingolimod] (max concentration tested 10000 nM)
percent inhibition of viability [%]
Settings | 1 nM | 10 nM | 100 nM | 1000 nM | 10000 nM
[1] | -2.7 | -1.12 | 2.03 | 16.4 | 101
[15] | 2.13 | -1.97 | 5.25 | 14.2 | 100
[16] | 1.04 | 3.67 | 4.21 | 10.1 | 101
[17] | -5.76 | 2.36 | -1.55 | 21.5 | 101
[18] | 2.86 | 25.2 | 18.7 | 13.7 | 101
[19] | -5.21 | -6.36 | 4.8 | 16 | 101
[20] | 1.29 | 3.97 | 7.28 | -5.13 | 103
[21] | 1.77 | 4.72 | 1.22 | 8.33 | 101
[22] | -0.71 | -3.03 | -0.07 | 8.48 | 101
[23] | -3 | 6.8 | 9.6 | 30.1 | 101
[24] | -1.37 | 0.63 | 1.86 | 10.4 | 102
[25] | -17.7 | -6.84 | 5.41 | -5.02 | 100
[26] | 0.28 | -1.75 | -1.3 | -3.49 | 100
[27] | -0.79 | 1.01 | 0.07 | 10.2 | 102

Settings | drug sensitivity score
[2] | 7.91
[3] | 7.23
[4] | 8.95
[5] | 7.85
[6] | 8.2
[7] | 5.44
[8] | 6.91
[9] | 6.91
[10] | 9.92
[11] | 7.3
[12] | 5.22
[13] | 5.33
[14] | 7.28
[28] | 8.27

C[C@]12CC[C@@H]3c4ccc(O)cc4C[C@@H](CCCCCCCCC[S+]([O-])CCCC(F)(F)C(F)(F)F)[C@H]3[C@@H]1CC[C@@H]2O (some centres not stated) [Fulvestrant] (max concentration tested 1000 nM)
percent inhibition of viability [%]
Settings | 0.1 nM | 1 nM | 10 nM | 100 nM | 1000 nM
[1] | -7.38 | -10.5 | -9.28 | -0.53 | 6.13
[15] | -6.65 | 4.87 | 1.14 | -1.33 | 2.61
[16] | -8.22 | -3.8 | -1.67 | -1.37 | 16.7
[17] | -10.2 | -0.09 | 8.43 | 5.9 | 26.5
[18] | -16.9 | 6.87 | -25.7 | -23.9 | -13.9
[19] | -0.86 | -4.87 | 4.79 | 2.49 | 3.75
[20] | -8.22 | -4.79 | -0.7 | -0.61 | 35.1
[21] | -6.18 | 3.96 | 7.53 | -1.76 | 28.7
[22] | -3.4 | -8.82 | 2.76 | -0.05 | -2.99
[23] | -3.73 | 1.23 | 1.02 | 9.49 | 38.2
[24] | -4.05 | -5.76 | -3.52 | 0.56 | 15.3
[25] | 6.08 | 3.62 | 2.89 | -5.25 | -3.36
[26] | 7.52 | -6.84 | 15.3 | 7.9 | 31.3
[27] | -10.8 | -4.41 | -2.37 | -6.26 | 7.16

Settings | drug sensitivity score
[2] | 0
[3] | 0.29
[4] | 1.68
[5] | 0
[6] | 0
[7] | 1.6
[8] | 1.09
[9] | 0
[10] | 3.35
[11] | 0.29
[12] | 0
[13] | 2.33
[14] | 0
[28] | 0

O=C(NOCCO)c1ccc2cncn2c1Nc1ccc(I)cc1F [GDC-0623] (max concentration tested 2500 nM)
percent inhibition of viability [%]
Settings | 0.25 nM | 2.5 nM | 25 nM | 250 nM | 2500 nM
[1] | -1.46 | -4.58 | 0.15 | 3.69 | -1.38
[15] | 1.53 | 2.87 | 4.11 | 20.2 | 49.3
[16] | -4.83 | -0.98 | -7.63 | -7.39 | -5.55
[17] | -1.35 | 0.84 | 4.63 | 16.2 | 24.8
[18] | 6.88 | -4.38 | -13.8 | -14.5 | -33.3
[19] | 0.23 | -3.52 | 5.29 | 8.89 | 14.6
[20] | -2.15 | -3.76 | -6.69 | -7.14 | -20.9
[21] | 0.15 | -1.83 | -0.28 | 6.96 | -0.89
[22] | -9.21 | -4.95 | 0.24 | 3.46 | 15.2
[23] | -5.9 | -3.61 | 37.9 | 65.4 | 62.6
[24] | -3.81 | -3.05 | 2.89 | 12.4 | 10.4
[25] | -5.35 | -2.96 | -2.99 | 19.2 | 1.26
[26] | -7.6 | 7.27 | 7.92 | 9.81 | 15.9
[27] | -2.63 | 1.52 | 26.2 | 53.6 | 53.1

Settings | drug sensitivity score
[2] | 4.82
[3] | 0.89
[4] | 2.53
[5] | 0
[6] | 0.54
[7] | 0.89
[8] | 0
[9] | 0.57
[10] | 16.7
[11] | 0.81
[12] | 0
[13] | 0.97
[14] | 13
[28] | 0
